The test system of one assay is 80S14 (p21-deficient) cells. Put plainly: Cytotoxicity assay using isogenic cell lines: IC50 in 80S14 (p21-deficient) cells, SRB. The class given is cell-based, human. The settings on record: Homo sapiens, 80S14, 120 h, read-out: IC50 for 80S14 (uM). The method, boiled down: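 80S14 (p21-deficient) cells seeded at 12,000 cells/well overnight, then exposed 5 days at 37 °C to serial dilutions (5 pM–50 μM or 170 pg/ml–10 μg/ml). TCA-fixed, sulforhodamine B-stained, absorbance at 560 nm; IC50 taken from cytotoxicity curves versus untreated controls.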
Consider `CC(C)OC(=O)Nc1cccc(-c2ccnc3c(C(=O)c4ccccc4)cnn23)c1` [Example 294, Isopropyl 3-(3-benzoylpyrazolo[1,5-a]pyrimidin-7-yl)phenylcarbamate], for which the IC50 was less than 1 µM.

As to `CC(C)OC(=O)Nc1cccc(-c2ccnc3c(C(=O)C4CCCC4)cnn23)c1` [Example 295, Isopropyl 3-[3-(cyclopentylcarbonyl)pyrazolo[1,5-a]pyrimidin-7-yl]phenylcarbamate], the IC50 was in the range of 1 to 10 µM.

Take `CC(C)CC(=O)Nc1cccc(-c2ccnc3c(C(=O)C4CCCC4)cnn23)c1` [Example 296, N-{3-[3-(Cyclopentylcarbonyl)pyrazolo[1,5-a]pyrimidin-7-yl]phenyl}-3-methylbutanamide]: the IC50 is 1 to 10 µM.

As for `CC(C)OC(=O)Nc1cccc(-c2ccnc3c(C(=O)c4ccco4)cnn23)c1` [Example 299, Isopropyl 3-[3-(2-furoyl)pyrazolo[1,5-a]pyrimidin-7-yl]phenylcarbamate], the IC50 is less than 1 µM.

For the molecule `CC(C)CC(=O)Nc1cccc(-c2ccnc3c(C(=O)c4ccoc4)cnn23)c1` [Example 304, N-{3-[3-(3-Furoyl)pyrazolo[1,5-a]pyrimidin-7-yl]phenyl}-3-methylbutanamide], the IC50 fell in the range of 1 to 10 µM.

With `CC(C)OC(=O)Nc1cccc(-c2ccnc3c(C(=O)c4ccoc4)cnn23)c1` [Example 305, Isopropyl 3-[3-(3-furoyl)pyrazolo[1,5-a]pyrimidin-7-yl]phenylcarbamate], the IC50 is 1 to 10 µM.

`Cc1ccc(-c2ccnc3c(C(=O)c4cccs4)cnn23)cc1NC(=O)CC(C)C` [Example 310, 3-Methyl-N-{2-methyl-5-[3-(2-thienylcarbonyl)pyrazolo[1,5-a]pyrimidin-7-yl]phenyl}butanamide]: the IC50 lay in the range of 1 to 10 µM.

The assay is the same for the next values; noted with them: Homo sapiens, 120 h; 80S14 (p21-deficient) cells, 5 days, SRB; class symbols; read-out: IC50 for 80S14.
On to `CC(C)NC(=O)Nc1cccc(-c2ccnc3c(C(=O)c4ccco4)cnn23)c1` [Example 298, N-{3-[3-(2-Furoyl)pyrazolo[1,5-a]pyrimidin-7-yl]phenyl}-N′-isopropylurea], for which the IC50 was less than 1 µM.

As for `O=C(Nc1cccc(-c2ccnc3c(C(=O)c4ccco4)cnn23)c1)c1ccccc1` [Example 300, N-{3-[3-(2-Furoyl)pyrazolo[1,5-a]pyrimidin-7-yl]phenyl}benzamide], the IC50 lay within 1 to 10 µM.

Take `O=C(c1ccco1)c1cnn2c(-c3cccc(NC(=O)C4CCCC4)c3)ccnc12` [Example 302, N-{3-[3-(2-Furoyl)pyrazolo[1,5-a]pyrimidin-7-yl]phenyl}cyclopentanecarboxamide]: the IC50 was less than 1 µM.

Consider `COC(=O)c1cccc(-c2ccnc3c(C(=O)c4cccs4)cnn23)c1` [Example 306, Methyl 3-[3-(2-thienylcarbonyl)pyrazolo[1,5-a]pyrimidin-7-yl]benzoate], for which the concentration for half-maximal inhibition (IC50) was in the range of 10 to 50 µM.

`Cc1nn2c(-c3cccc(NC(=O)CC(C)C)c3)ccnc2c1C(=O)c1cccs1` [Example 307, 3-Methyl-N-{3-[2-methyl-3-(2-thienylcarbonyl)pyrazolo[1,5-a]pyrimidin-7-yl]phenyl}butanamide]: the concentration for half-maximal inhibition (IC50) is 10 to 50 µM.

Consider `Cc1nn2c(-c3cccc(NC(=O)OC(C)C)c3)ccnc2c1C(=O)c1cccs1` [Example 308, Isopropyl 3-[2-methyl-3-(2-thienylcarbonyl)pyrazolo[1,5-a]pyrimidin-7-yl]phenylcarbamate], for which the IC50 was 10 to 50 µM.

Turning to `Cc1ccc(-c2ccnc3c(C(=O)c4cccs4)cnn23)cc1NC(=O)c1ccccc1` [Example 309, N-{2-Methyl-5-[3-(2-thienylcarbonyl)pyrazolo[1,5-a]pyrimidin-7-yl]phenyl}benzamide], the IC50 was in the range of 1 to 10 µM.

Take `COc1ccc(-c2ccnc3c(C(=O)c4cccs4)cnn23)cc1NC(=O)c1ccccc1` [Example 315, N-{2-Methoxy-5-[3-(2-thienylcarbonyl)pyrazolo[1,5-a]pyrimidin-7-yl]phenyl}benzamide]: the IC50 is 1 to 10 µM.

Still in this assay, the particulars now being: Homo sapiens, 120 h; 80S14 (p21-deficient) cells, 5 days, SRB; numeric value; read-out: IC50 for 80S14.
As for `CCCCNC(=N)OC(=N)N(CCCC)c1cccc(-c2ccnc3c(C(=O)c4cccs4)cnn23)c1` [Example 292, N,N′-Dibutyl-N-{3-[3-(2-thienylcarbonyl)pyrazolo[1,5-a]pyrimidin-7-yl]phenyl}dicarbonimidic diamide], the IC50 amounted to 4.5 µM.

The term IC50 denotes the point on the concentration scale where inhibition reaches its midpoint.

Source of the values: patent US20060063784A1, “Method of using substituted pyrazolo [1,5-a] pyrimidines” (priority 2004, published 2006).
